≈ marks a conversion by molar mass, not a printed value. Read-outs that look alike come from different tables or passages of the source.
Columns and labels:
A. fumigatus = settings: cited from earlier work
[1] = Aqueous and phase solubility of voriconazole with SAE-CD; assay type: physicochemical
Aspergillus fumigatus = experiment: Pulmonary fungal burden by real-time quantitative PCR (conidial equivalents) in infected mice; assay type: in vivo; settings: Day + 8 per table footnote
Description: Mice were monitored for an additional 5 days following discontinuation of treatment. Animals that appeared moribund prior to the end of the study were euthanized by halothane and death was recorded as occurring the next day. 12 mice were randomly selected from each group and euthanized on Day +8 for fungal burden analysis while any remaining mice were euthanized on Day +12. 2 additional mice were randomly selected from each group and euthanized on Day +8 and Day +12 for histological analysis
Pulmonary fungal burden was also quantified by real-time quantitative polymerase chain reaction (qPCR) using previously described methods. Briefly, DNA was extracted from […] of lung homogenate with the use of a commercially available kit (DNeasy Tissue Kit, Qiagen, Valencia, Calif.) according to the manufacturer's instructions. DNA samples were analyzed in duplicate with the use of the ABI PRISM 7300 sequence-detection system (Applied Biosystems, Foster City, Calif.) with primers and dual-labeled fluorescent hybridization probes specific for the A. fumigatus 1,3-β-glucan synthase (FKS) gene (GenBank accession number U79728). The threshold cycle (Ct) of each sample was interpolated from a six-point standard curve generated by spiking naive mouse lungs with known amounts of conidia (102 to 107). An internal standard was amplified in separate reactions to correct for differences in DNA recovery. The resulting data was expressed as conidial equivalents (CE).
Statistical analyses were conducted as follows. Survival was plotted by Kaplan-Meier analysis, and differences in median survival and percent survival between prophylaxis groups were analyzed by the log-rank test and chi-square test, respectively, using Prism version 4 software (GraphPad, San Diego, Calif.). Differences in fungal burden endpoints (CFU/g and CE) were assessed for significance by analysis of variance with Tukey's post-test for multiple comparisons. A p-value of ≦0.05 was considered statistically significant for all comparisons.

SMILES: CC(c1ncncc1F)C(O)(Cn1cncn1)c1ccc(F)cc1F (centres unmarked) [Voriconazole, 2-(2,4-difluorophenyl)-3-(5-fluoropyrimidin-4-yl)-1-(1H-1,2,4-triazol-1-yl)butan-2-ol]
- fungicidal activity at a low concentration (A. fumigatus): 0.5 microgram/mL
- EC50 value (concentration resulting in 50% inhibition of growth compared to control) (A. fumigatus; non-linear regression analysis): 0.18 micrograms/mL
- solubility ([1]; water with SAE-CD, aqueous with cosolvent or surfactant or cyclodextrin, thermodynamic from solid, Voriconazole (mg/ml) at saturated solubility, SAE-CD 43.26 mg/ml (r4)): 3.34 mg/mL (≈ 9.56 mM)
- solubility ([1]; water with SAE-CD, aqueous with cosolvent or surfactant or cyclodextrin, thermodynamic from solid, Voriconazole (mg/ml) at saturated solubility, SAE-CD 43.26 mg/ml as printed (r8)): 35.1 mg/mL (≈ 101 mM)
- solubility ([1]; water with SAE-CD, aqueous with cosolvent or surfactant or cyclodextrin, thermodynamic from solid, Voriconazole (mg/ml) at saturated solubility, SAE-CD 108.15 mg/ml): 8.39 mg/mL (≈ 24 mM)
- solubility ([1]; water with SAE-CD, aqueous with cosolvent or surfactant or cyclodextrin, thermodynamic from solid, Voriconazole (mg/ml) at saturated solubility, SAE-CD 216.3 mg/ml): 17.3 mg/mL (≈ 49.6 mM)
- solubility ([1]; water with SAE-CD, aqueous with cosolvent or surfactant or cyclodextrin, thermodynamic from solid, Voriconazole (mg/ml) at saturated solubility, SAE-CD 324.45 mg/ml): 26.5 mg/mL (≈ 75.8 mM)
- solubility ([1]; water, room temperature, absence of water soluble cyclodextrin derivative, read-out: aqueous solubility): 0.68 to 0.69 mg/mL (≈ 1.95 to 1.98 mM)
- C - Conidial Equivalents Determined by qPCR, Mean (Aspergillus fumigatus): 4.56 log10 conidial equivalents
- C - Conidial Equivalents Determined by qPCR, Median (Aspergillus fumigatus): 4.59 log10 conidial equivalents
- C - Conidial Equivalents Determined by qPCR, Range (Aspergillus fumigatus): (3.77-5.32) log10 conidial equivalents
- D - Conidial Equivalents per Gram of Lung Tissue Determined by Qpcr, Mean (Aspergillus fumigatus; normalized for wet lung weight): 5.19 log10 conidial equivalents per
- D - Conidial Equivalents per Gram of Lung Tissue Determined by Qpcr, Median (Aspergillus fumigatus; normalized for wet lung weight): 5.24 log10 conidial equivalents per
- D - Conidial Equivalents per Gram of Lung Tissue Determined by Qpcr, Range (Aspergillus fumigatus; normalized for wet lung weight): (4.45-5.98) log10 conidial equivalents per

Source: patent US20110224232A1 (Board of Regents, The University of Texas System, priority 2008, published 2011)
